In brackets after ≈: the same amount, converted by molar mass. Non-standard residues stand in square brackets, D forms with d. Residues, ends and D or L forms follow the SMILES beside them. ξ: configuration not given here. *: point of attachment. Myristoyl = CCCCCCCCCCCCCC(=O)*; Decanoyl = CCCCCCCCCC(=O)*; ξAhp(2) = CCCCCC(N)C(=O)O
Key:
[1] = system: A. baumannii AB1901; assay: MIC against clinical strain; format: cell-based; conditions: Acinetobacter baumannii, AB1901, read-out: MIC, A. baumannii AB1901
Procedure: (§1) The MIC values of the nano‐short peptides were determined according to standard protocols.^[ [63] ^] Bacterial strains were revived from cryopreservation and cultured in Mueller–Hinton broth (MHB) to logarithmic growth phase, then diluted to a final density of 0.5–1 × 10⁶ CFU mL^−1. Serial dilutions of the nano‐short peptides were prepared in 0.2% bovine serum albumin (BSA) using a 96‐well plate format. Equal volumes of peptide solutions and bacterial suspensions were combined and incubated at 37 °C for 20–22 h. Bacterial growth was assessed by measuring absorbance at 492 nm, with MHB alone (negative control) and untreated bacterial suspension (positive control) included for reference.

[2] = system: A. baumannii AB1902; assay: MIC against clinical strain; format: cell-based; conditions: Acinetobacter baumannii, AB1902, read-out: MIC, A. baumannii AB1902
Procedure: as §1

[3] = system: P. aeruginosa 25349; assay: MIC against clinical strain; format: cell-based; conditions: Pseudomonas aeruginosa, 25349, read-out: MIC, P. aeruginosa 25349
Procedure: as §1

[4] = system: S. aureus 11011; assay: MIC against clinical strain; format: cell-based; conditions: Staphylococcus aureus, 11011, read-out: MIC, S. aureus 11011
Procedure: as §1

[5] = system: E. coli 078; format: cell-based, Escherichia coli
Procedure: as §1

[6] = system: E. coli 25922; format: cell-based, Escherichia coli
Procedure: as §1

[7] = system: E. coli UB1005; format: cell-based, Escherichia coli
Procedure: as §1

[8] = system: P. aeruginosa 27853; format: cell-based, Pseudomonas aeruginosa
Procedure: as §1

[9] = system: P. aeruginosa PAO1; format: cell-based, Pseudomonas aeruginosa
Procedure: as §1

[10] = system: S. pullorum C7913; format: cell-based
Procedure: as §1

[11] = system: S. typhimurium 14028; format: cell-based, Salmonella typhimurium
Procedure: as §1

[12] = system: S. typhimurium 7731; format: cell-based, Salmonella typhimurium
Procedure: as §1

[13] = system: S. aureus 25923; format: cell-based, Staphylococcus aureus
Procedure: as §1

[14] = system: S. aureus 29213; format: cell-based, Staphylococcus aureus
Procedure: as §1

[15] = system: MRSA 43300; format: cell-based, Methicillin-Resistant Staphylococcus aureus
Procedure: as §1

[16] = system: E. faecalis 29212; format: cell-based, Enterococcus faecalis
Procedure: as §1

[17] = system: S. epidermidis 12228; format: cell-based, Staphylococcus epidermidis
Procedure: as §1

SMILES | MIC [1] | MIC [2] | MIC [3] | MIC [4] | MIC, E. coli 078 [5] | MIC, E. coli 25922 [6] | MIC, E. coli UB1005 [7] | MIC, P. aeruginosa 27853 [8] | MIC, P. aeruginosa PAO1 [9] | MIC, S. pullorum C7913 [10] | MIC, S. typhimurium 14028 [11] | MIC, S. typhimurium 7731 [12] | MIC, S. aureus 25923 [13] | MIC, S. aureus 29213 [14] | MIC, MRSA 43300 [15] | MIC, E. faecalis 29212 [16] | MIC, S. epidermidis 12228 [17]
CC[C@H]1OC(=O)[C@H](C)[C@@H](O[C@H]2C[C@@](C)(OC)[C@@H](O)[C@H](C)O2)[C@H](C)[C@@H](O[C@@H]2O[C@H](C)C[C@H](N(C)C)[C@H]2O)[C@](C)(O)C[C@@H](C)C(=O)[C@H](C)[C@@H](O)[C@]1(C)O [Erythromycin] | 64 µM (≈ 47 µg/mL) | 128 µM (≈ 93.9 µg/mL) | 128 µM (≈ 93.9 µg/mL) | 128 µM (≈ 93.9 µg/mL) | – | – | – | – | – | – | – | – | – | – | – | – | –
CCCCCC(N)C(=O)NC(CCCCC)C(=O)NC(CCCCC)C(=O)N[C@H](CCCNC(=N)N)C(=O)N[C@@H](CCCNC(=N)N)C(=O)N[C@@H](CCCNC(=N)N)C(=O)N1CCC[C@H]1C(=O)O (stereo partly shown) [Peptide B3] (H-[ξAhp(2)][ξAhp(2)][ξAhp(2)][dR]RRP-OH; N-terminus assumed) | – | – | – | – | 256 µM (≈ 247 µg/mL) | 256 µM (≈ 247 µg/mL) | 256 µM (≈ 247 µg/mL) | 256 µM (≈ 247 µg/mL) | 256 µM (≈ 247 µg/mL) | 256 µM (≈ 247 µg/mL) | 256 µM (≈ 247 µg/mL) | 256 µM (≈ 247 µg/mL) | 256 µM (≈ 247 µg/mL) | 256 µM (≈ 247 µg/mL) | 256 µM (≈ 247 µg/mL) | 256 µM (≈ 247 µg/mL) | 256 µM (≈ 247 µg/mL)
CCCCCCCCCC(=O)N[C@H](CCCNC(=N)N)C(=O)N[C@@H](CCCNC(=N)N)C(=O)N[C@@H](CCCNC(=N)N)C(=O)N1CCC[C@H]1C(=O)O [Peptide C10] (Decanoyl-[dR]RRP-OH) | – | – | – | – | 256 µM (≈ 189 µg/mL) | 256 µM (≈ 189 µg/mL) | 256 µM (≈ 189 µg/mL) | 256 µM (≈ 189 µg/mL) | 256 µM (≈ 189 µg/mL) | 256 µM (≈ 189 µg/mL) | 256 µM (≈ 189 µg/mL) | 256 µM (≈ 189 µg/mL) | 256 µM (≈ 189 µg/mL) | 256 µM (≈ 189 µg/mL) | 128 µM (≈ 94.5 µg/mL) | 256 µM (≈ 189 µg/mL) | 128 µM (≈ 94.5 µg/mL)
CCCCCCCCCCCCCC(=O)N[C@H](CCCNC(=N)N)C(=O)N[C@@H](CCCNC(=N)N)C(=O)N[C@@H](CCCNC(=N)N)C(=O)N1CCC[C@H]1C(=O)O [Peptide C14] (Myristoyl-[dR]RRP-OH) | – | – | – | – | 64 µM (≈ 50.8 µg/mL) | 64 µM (≈ 50.8 µg/mL) | 128 µM (≈ 102 µg/mL) | 64 µM (≈ 50.8 µg/mL) | 32 µM (≈ 25.4 µg/mL) | 64 µM (≈ 50.8 µg/mL) | 128 µM (≈ 102 µg/mL) | 64 µM (≈ 50.8 µg/mL) | 32 µM (≈ 25.4 µg/mL) | 32 µM (≈ 25.4 µg/mL) | 16 µM (≈ 12.7 µg/mL) | 32 µM (≈ 25.4 µg/mL) | 32 µM (≈ 25.4 µg/mL)
CC(C)(O/N=C(\C(=O)N[C@@H]1C(=O)N2C(C(=O)[O-])=C(C[n+]3ccccc3)CS[C@H]12)c1csc(N)n1)C(=O)O [Ceftazidime] | 8 µM (≈ 4.37 µg/mL) | 128 µM (≈ 70 µg/mL) | 32 µM (≈ 17.5 µg/mL) | 128 µM (≈ 70 µg/mL) | – | – | – | – | – | – | – | – | – | – | – | – | –
C[C@H](N)C(=O)N[C@@H](C)C(=O)N[C@@H](C)C(=O)N[C@@H](C)C(=O)N[C@@H](C)C(=O)N[C@H](CCCNC(=N)N)C(=O)N[C@@H](CCCNC(=N)N)C(=O)N[C@@H](CCCNC(=N)N)C(=O)N1CCC[C@H]1C(=O)O [Peptide A5] (H-AAAAA[dR]RRP-OH) | – | – | – | – | 256 µM (≈ 240 µg/mL) | 256 µM (≈ 240 µg/mL) | 256 µM (≈ 240 µg/mL) | 256 µM (≈ 240 µg/mL) | 256 µM (≈ 240 µg/mL) | 256 µM (≈ 240 µg/mL) | 256 µM (≈ 240 µg/mL) | 256 µM (≈ 240 µg/mL) | 256 µM (≈ 240 µg/mL) | 256 µM (≈ 240 µg/mL) | 256 µM (≈ 240 µg/mL) | 256 µM (≈ 240 µg/mL) | 256 µM (≈ 240 µg/mL)
CN[C@H](CC(C)C)C(=O)N[C@H]1C(=O)N[C@@H](CC(N)=O)C(=O)N[C@H]2C(=O)N[C@H]3C(=O)N[C@H](C(=O)N[C@H](C(=O)O)c4cc(O)cc(O)c4-c4cc3ccc4O)[C@H](O)c3ccc(c(Cl)c3)Oc3cc2cc(c3O[C@@H]2O[C@H](CO)[C@@H](O)[C@H](O)[C@H]2O[C@H]2C[C@](C)(N)[C@H](O)[C@H](C)O2)Oc2ccc(cc2Cl)[C@H]1O [Vancomycin] | 1 µM (≈ 1.45 µg/mL) | 128 µM (≈ 186 µg/mL) | 128 µM (≈ 186 µg/mL) | 128 µM (≈ 186 µg/mL) | – | – | – | – | – | – | – | – | – | – | – | – | –

From article PMC12677699, “Utilizing Proteolytic‐Resistant Nano‐Short Peptide Based on Naphthyl Tail‐Anchored to Combat Bacterial Infections” (Advanced Science, 2025)
